Assays:
[1] = tested on: differentiated human THP-1 monocytes; test: CEC - Cholesterol Efflux Assay (abcam ab196985); type: cell-based; details: 4 h, reference standard = non-isomerically pure hydroxypropyl beta-cyclodextrin
Procedure: Cholesterol Efflux from differentiated human THP-1 monocytes was assessed according to the manufacturer's protocol (abcam, ab196985). Briefly, THP-1 monocytes were differentiated for 48 h in presence of 100 nM phorbol 12-myristate-13-acetate (PMA) in RPMI 1640 growth medium (10% FCS, 1% penicillin/streptomycin) in a humidified incubator (37° C., 5% CO2). Differentiated THP-1 macrophage-like cells were harvested, washed with PBS, resuspended in growth medium, seeded at 1×10^5 cells into 96-well plates, and allowed to adhere for 6h. Cells were washed with serum-free RPMI media, and labelled with 100 μL of fluorescent cholesterol labelling medium (50 uL Labeling Reagent+50 uL serum-free RPMI) for 1 h protected from light. Labeling medium was removed and replaced with 100 μL, 37° C. pre-warmed equilibration medium (50 uL Equilibration Buffer+[…] Reagent A +10 μL/mL Reagent B+50 uL serum-free RPMI) and incubated for 16±1 h in an incubator (37° C., 5% CO2). Equilibration medium was removed, and cells were washed with RPMI (w/o phenol red, w/o serum). Serum cholesterol acceptor was prepared by mixing 2 parts of Serum Treatment Reagent with 5 parts of human serum, incubated on ice for 20 minutes. The mix was centrifuged at 9,000×g for 10 minutes at 4° C., and supernatants were stored on ice until use. THP-1 cells were incubated for 4 h with 100 uL RPMI media (w/o phenol red, w/o serum), spiked with 10 uL of compound (10× stock in PBS) and 2 uL serum acceptor (2%), or RPMI media spiked with 10 uL PBS and 2 uL serum acceptor (negative control). Following incubation, plates were centrifuged and whole supernatants were transferred to an opaque 96-well plate. Remaining cells were lysed by adding 100 μL of Cell Lysis Buffer and shaking at 500 rpm for 25 minutes protected from light. Cell lysate was resuspended and transferred into an opaque 96-well. Plates containing supernatants or cell lysates were measured in a plate reader at 485 nm (excitation) and 523 nm (emission). Percent (%) cholesterol efflux was measured as RFU supernatant/(RFU supernatant +RFU cell lysate)×100%.
The cholesterol efflux from cells treated with compounds of the disclosure at concentrations of 0.1 mM, 0.3 mM and 1 mM, relative to cholesterol efflux from cells treated with a reference standard, are summarized in Table 1. In the table, A denotes compounds with a CEC of >126% of that of the reference standard and B denotes compounds with a CEC of 106% to 125% of that of the reference standard; 0 denotes compounds with a CEC of 96%-105% of that of the reference standard; and—denotes compounds with a CEC of 75%-95% of that of the reference standard. The reference standard is a non-isomerically pure hydroxypropyl beta-cyclodextrin.

[2] = tested on: differentiated human THP-1 monocytes; test: Cytotoxicity assay, lactate dehydrogenase (LDH) release (CytoTox 96, Promega G1780); type: cell-based; details: samples from CEC assay, reference standard = non-isomerically pure hydroxypropyl beta-cyclodextrin
Procedure: Cytotoxicity was measured using a lactate dehydrogenase (LDH) assay, according to the manufacturer's protocol (CytoTox 96® Non-Radioactive Cytotoxicity Assay, Promega, G1780). Supernatants and cell lysates from CEC assay served as samples. Briefly, 50 uL of supernatant and cell lysates were transferred into separate transparent 96-well plates. 50 uL CytoTox 96© Reagent was added to the wells, mixed by pipetting, and incubated for 10 minutes protected from light. 50 μL of Stop Solution was added, mixed by pipetting, and absorbance (OD) was measured at 490 nm in a plate reader. Phenol red-free RPMI with 10% […] and Cell Lysis Buffer (abcam, ab196985) served as background controls. Percent (%) cytotoxicity was measured as OD supernatant/(OD supernatant+OD cell lysate)×100%.
Lactate dehydrogenase (LDH) released from cells treated with compounds of the disclosure at concentrations of 0.1 mM, 0.3 mM and 1 mM, relative to LDH) released from cells treated with a reference standard, are summarized in Table 2. In the table, A denotes compounds releasing LDH in an amount of <70% of that of the reference standard; B denotes compounds releasing LDH in an amount of 71-95% of that of the reference standard; 0 denotes compounds releasing LDH in an amount of 96%-105% of that of the reference standard; +denotes compounds releasing LDH in an amount of 106%-120% of that of the reference standard; and ++denotes compounds releasing LDH in an amount of >120% of that of the reference standard The reference standard is a non-isomerically pure hydroxypropyl beta-cyclodextrin.

SMILES	Cholesterol efflux from cells treated with compounds, relative to reference standard ([1]; 0.1 mM)	Cholesterol efflux from cells treated with compounds, relative to reference standard ([1]; 0.3 mM)	Cholesterol efflux from cells treated with compounds, relative to reference standard ([1]; 1 mM)	Release of lactate dehydrogenase from cells treated with compounds, relative to reference standard ([2]; 0.1 mM)	Release of lactate dehydrogenase from cells treated with compounds, relative to reference standard ([2]; 0.3 mM)	Release of lactate dehydrogenase from cells treated with compounds, relative to reference standard ([2]; 1 mM)
CC(O)CO[C@H]1[C@H]2O[C@H]3[C@H](O)[C@@H](OCC(C)O)[C@@H](O[C@H]4[C@H](O)[C@@H](OCC(C)O)[C@@H](O[C@H]5[C@H](O)[C@@H](OCC(C)O)[C@@H](O[C@H]6[C@H](O)[C@@H](OCC(C)O)[C@@H](O[C@H]7[C@H](O)[C@@H](OCC(C)O)[C@@H](O[C@H]8[C@H](O)[C@@H](OCC(C)O)[C@@H](O[C@@H]([C@@H]1O)[C@@H](CO)O2)O[C@@H]8CO)O[C@@H]7CO)O[C@@H]6CO)O[C@@H]5CO)O[C@@H]4CO)O[C@@H]3CO (stereo partly drawn) [Compound 5]	− (—denotes compounds with a CEC of 75%-95% of that of the reference standard)	− (—denotes compounds with a CEC of 75%-95% of that of the reference standard)	− (—denotes compounds with a CEC of 75%-95% of that of the reference standard)	0 (0 denotes compounds releasing LDH in an amount of 96%-105% of that of the reference standard)	0 (0 denotes compounds releasing LDH in an amount of 96%-105% of that of the reference standard)	0 (0 denotes compounds releasing LDH in an amount of 96%-105% of that of the reference standard)
OCC(O)CO[C@H]1[C@H]2O[C@H]3[C@H](O)[C@@H](OCC(O)CO)[C@@H](O[C@H]4[C@H](O)[C@@H](OCC(O)CO)[C@@H](O[C@H]5[C@H](O)[C@@H](OCC(O)CO)[C@@H](O[C@H]6[C@H](O)[C@@H](OCC(O)CO)[C@@H](O[C@H]7[C@H](O)[C@@H](OCC(O)CO)[C@@H](O[C@H]8[C@H](O)[C@@H](OCC(O)CO)[C@@H](O[C@@H]([C@@H]1O)[C@@H](CO)O2)O[C@@H]8CO)O[C@@H]7CO)O[C@@H]6CO)O[C@@H]5CO)O[C@@H]4CO)O[C@@H]3CO (stereo partly drawn) [Compound 3]	− (—denotes compounds with a CEC of 75%-95% of that of the reference standard)	− (—denotes compounds with a CEC of 75%-95% of that of the reference standard)	− (—denotes compounds with a CEC of 75%-95% of that of the reference standard)	++ (++denotes compounds releasing LDH in an amount of >120% of that of the reference standard)	+ (+denotes compounds releasing LDH in an amount of 106%-120% of that of the reference standard)	0 (0 denotes compounds releasing LDH in an amount of 96%-105% of that of the reference standard)
CC(O)CO[C@@H]1[C@@H](O)[C@H]2O[C@H]3[C@H](OCC(C)O)[C@@H](O)[C@@H](O[C@H]4[C@H](OCC(C)O)[C@@H](O)[C@@H](O[C@H]5[C@H](OCC(C)O)[C@@H](O)[C@@H](O[C@H]6[C@H](OCC(C)O)[C@@H](O)[C@@H](O[C@H]7[C@H](OCC(C)O)[C@@H](O)[C@@H](O[C@H]8[C@H](OCC(C)O)[C@@H](O)[C@@H](O[C@@H]1[C@@H](CO)O2)O[C@@H]8CO)O[C@@H]7CO)O[C@@H]6CO)O[C@@H]5CO)O[C@@H]4CO)O[C@@H]3CO (stereo partly drawn) [Compound 4]	− (—denotes compounds with a CEC of 75%-95% of that of the reference standard)	− (—denotes compounds with a CEC of 75%-95% of that of the reference standard)	− (—denotes compounds with a CEC of 75%-95% of that of the reference standard)	++ (++denotes compounds releasing LDH in an amount of >120% of that of the reference standard)	++ (++denotes compounds releasing LDH in an amount of >120% of that of the reference standard)	++ (++denotes compounds releasing LDH in an amount of >120% of that of the reference standard)
CC(C)(O)CO[C@@H]1[C@@H](O)[C@H]2O[C@H]3[C@H](OCC(C)(C)O)[C@@H](O)[C@@H](O[C@H]4[C@H](OCC(C)(C)O)[C@@H](O)[C@@H](O[C@H]5[C@H](OCC(C)(C)O)[C@@H](O)[C@@H](O[C@H]6[C@H](OCC(C)(C)O)[C@@H](O)[C@@H](O[C@H]7[C@H](OCC(C)(C)O)[C@@H](O)[C@@H](O[C@H]8[C@H](OCC(C)(C)O)[C@@H](O)[C@@H](O[C@@H]1[C@@H](CO)O2)O[C@@H]8CO)O[C@@H]7CO)O[C@@H]6CO)O[C@@H]5CO)O[C@@H]4CO)O[C@@H]3CO [Compound 6]	0 (0 denotes compounds with a CEC of 96%-105% of that of the reference standard)	− (—denotes compounds with a CEC of 75%-95% of that of the reference standard)	− (—denotes compounds with a CEC of 75%-95% of that of the reference standard)	0 (0 denotes compounds releasing LDH in an amount of 96%-105% of that of the reference standard)	+ (+denotes compounds releasing LDH in an amount of 106%-120% of that of the reference standard)	+ (+denotes compounds releasing LDH in an amount of 106%-120% of that of the reference standard)
COCCO[C@H]1[C@H]2O[C@H]3[C@H](O)[C@@H](OCCOC)[C@@H](O[C@H]4[C@H](O)[C@@H](OCCOC)[C@@H](O[C@H]5[C@H](O)[C@@H](OCCOC)[C@@H](O[C@H]6[C@H](O)[C@@H](OCCOC)[C@@H](O[C@H]7[C@H](O)[C@@H](OCCOC)[C@@H](O[C@H]8[C@H](O)[C@@H](OCCOC)[C@@H](O[C@@H]([C@@H]1O)[C@@H](CO)O2)O[C@@H]8CO)O[C@@H]7CO)O[C@@H]6CO)O[C@@H]5CO)O[C@@H]4CO)O[C@@H]3CO [Compound 1]	0 (0 denotes compounds with a CEC of 96%-105% of that of the reference standard)	0 (0 denotes compounds with a CEC of 96%-105% of that of the reference standard)	0 (0 denotes compounds with a CEC of 96%-105% of that of the reference standard)	B (B denotes compounds releasing LDH in an amount of 71-95% of that of the reference standard)	B (B denotes compounds releasing LDH in an amount of 71-95% of that of the reference standard)	B (B denotes compounds releasing LDH in an amount of 71-95% of that of the reference standard)
